{"source": "ChEMBL document CHEMBL2073845", "about": "“Structure, function, and regional distribution of the organic cation transporter OCT3 in the kidney” (Am J Physiol Renal Physiol, 2000)", "key": {"OCT3 (SLC22A3) [1]": {"biological_target": "T1, OCT3 (SLC22A3) (Mus musculus, UniProt Q9WTW5)", "T1 sequence (Q9WTW5 whole entry)": "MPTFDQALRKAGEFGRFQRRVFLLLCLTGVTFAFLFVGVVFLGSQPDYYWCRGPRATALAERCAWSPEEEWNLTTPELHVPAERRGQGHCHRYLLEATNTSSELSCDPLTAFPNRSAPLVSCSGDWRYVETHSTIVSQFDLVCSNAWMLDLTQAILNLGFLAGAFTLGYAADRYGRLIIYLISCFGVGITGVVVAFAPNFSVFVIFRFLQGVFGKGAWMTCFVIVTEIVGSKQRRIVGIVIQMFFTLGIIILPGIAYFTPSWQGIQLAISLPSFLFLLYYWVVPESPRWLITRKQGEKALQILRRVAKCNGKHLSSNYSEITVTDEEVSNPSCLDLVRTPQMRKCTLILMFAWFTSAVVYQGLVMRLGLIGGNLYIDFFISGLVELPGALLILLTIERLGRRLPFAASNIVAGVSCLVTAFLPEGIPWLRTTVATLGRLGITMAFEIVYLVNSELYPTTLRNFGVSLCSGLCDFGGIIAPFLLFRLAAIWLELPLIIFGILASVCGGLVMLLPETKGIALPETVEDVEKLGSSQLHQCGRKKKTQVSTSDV", "assay": "TP_TRANSPORTER: inhibition of TEA uptake (TEA: 20 uM, MPTP: 5000 uM) in OCT3-expressing HRPE cells", "format": "functional, cell-based", "conditions": "human, HRPE cells that express OCT3, probe TEA"}, "[2]": {"biological_target": "T2, Solute carrier family 22 member 3 (Mus musculus, UniProt Q9WTW5)", "T2 sequence (Q9WTW5 whole entry)": "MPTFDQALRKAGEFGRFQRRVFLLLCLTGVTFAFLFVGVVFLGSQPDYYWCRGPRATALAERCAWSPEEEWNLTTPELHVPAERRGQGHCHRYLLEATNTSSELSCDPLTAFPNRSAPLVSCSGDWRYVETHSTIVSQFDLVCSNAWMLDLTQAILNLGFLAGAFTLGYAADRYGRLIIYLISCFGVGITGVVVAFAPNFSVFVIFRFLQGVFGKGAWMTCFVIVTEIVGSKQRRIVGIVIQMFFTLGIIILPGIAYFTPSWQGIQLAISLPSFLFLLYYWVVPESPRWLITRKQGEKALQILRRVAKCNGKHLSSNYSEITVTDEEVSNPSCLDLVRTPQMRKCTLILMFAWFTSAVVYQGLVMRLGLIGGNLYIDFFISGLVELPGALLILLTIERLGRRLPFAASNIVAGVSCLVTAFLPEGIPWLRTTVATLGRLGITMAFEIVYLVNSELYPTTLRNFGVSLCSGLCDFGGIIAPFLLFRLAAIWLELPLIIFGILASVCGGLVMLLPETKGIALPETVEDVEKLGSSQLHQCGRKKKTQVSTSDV", "assay": "TP_TRANSPORTER: uptake in Xenopus laevis oocytes", "format": "functional, cell-based", "conditions": "oocyte"}, "OCT3 (SLC22A3) [3]": {"biological_target": "T1, OCT3 (SLC22A3)", "assay": "TP_TRANSPORTER: inhibition of TEA uptake (TEA: 20 uM, MPP+: 5000 uM) in OCT3-expressing HRPE cells", "format": "functional, cell-based", "conditions": "human, HRPE cells that express OCT3, probe TEA"}, "[4]": {"biological_target": "T3, Solute carrier family 22 member 3 (Homo sapiens, UniProt O75751)", "T3 sequence (O75751 whole entry)": "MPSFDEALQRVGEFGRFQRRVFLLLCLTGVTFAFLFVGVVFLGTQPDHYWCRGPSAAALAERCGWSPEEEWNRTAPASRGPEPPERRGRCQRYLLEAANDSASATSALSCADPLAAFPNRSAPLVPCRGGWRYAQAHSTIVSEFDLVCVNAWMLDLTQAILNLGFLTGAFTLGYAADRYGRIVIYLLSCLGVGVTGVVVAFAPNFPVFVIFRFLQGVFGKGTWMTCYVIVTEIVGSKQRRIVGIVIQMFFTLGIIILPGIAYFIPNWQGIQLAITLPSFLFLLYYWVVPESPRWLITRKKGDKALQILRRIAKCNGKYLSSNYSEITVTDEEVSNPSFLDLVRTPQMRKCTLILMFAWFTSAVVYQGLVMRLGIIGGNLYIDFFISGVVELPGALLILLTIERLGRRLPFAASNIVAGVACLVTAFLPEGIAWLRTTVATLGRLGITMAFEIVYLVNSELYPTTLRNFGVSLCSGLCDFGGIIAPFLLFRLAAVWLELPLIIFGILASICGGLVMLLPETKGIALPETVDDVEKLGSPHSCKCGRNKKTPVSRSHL", "assay": "TP_TRANSPORTER: inhibition of MPP+ uptake in OCT3-expressing HRPE cells", "format": "functional, cell-based"}, "OCT3 (SLC22A3) [5]": {"biological_target": "T1, OCT3 (SLC22A3)", "assay": "in vitro", "conditions": "human, HRPE cells that express OCT3, probe TEA"}, "OCT3 (SLC22A3) [6]": {"biological_target": "T1, OCT3 (SLC22A3)", "assay": "in vitro", "conditions": "human, HRPE cells that express OCT3, probe TEA", "remark": "listed apart in the source"}, "[7]": {"biological_target": "T2, Solute carrier family 22 member 3", "assay": "TP_TRANSPORTER: inhibition of TEA uptake (TEA: 20 uM, Guanidine: 5000 uM) in OCT3-expressing HRPE cells", "format": "functional, cell-based", "conditions": "human"}, "[8]": {"biological_target": "T2, Solute carrier family 22 member 3", "assay": "TP_TRANSPORTER: inhibition of TEA uptake (TEA: 20 uM, NMN: 5000 uM) in OCT3-expressing HRPE cells", "format": "functional, cell-based", "conditions": "human"}, "[9]": {"biological_target": "T3, Solute carrier family 22 member 3", "assay": "TP_TRANSPORTER: uptake in OCT3-expressing HRPE cells", "format": "functional, cell-based"}, "[10]": {"substrate": "CC[N+](CC)(CC)CC", "assay": "cells, lysate or membranes named"}}, "data": [{"molecule": "CN1CC=C(c2ccccc2)CC1", "values": [{"measurement": "inhibition at 5000 µM", "setting": "OCT3 (SLC22A3) [1]", "value": "> 90", "unit": "%"}]}, {"molecule": "C[n+]1ccc(-c2ccccc2)cc1", "values": [{"measurement": "Activity", "setting": "[2]", "value": "substrate [+]"}, {"measurement": "inhibition at 5000 µM", "setting": "OCT3 (SLC22A3) [3]", "value": "> 90", "unit": "%"}, {"measurement": "Ki", "setting": "[4]", "value": 54, "unit": "µM"}]}, {"molecule": "CN/C(=N/CCSCc1nc[nH]c1C)NC#N", "note": "[CIMETIDINE]", "values": [{"measurement": "inhibition at 5000 µM", "setting": "OCT3 (SLC22A3) [5]", "value": "> 90", "unit": "%"}]}, {"molecule": "Clc1cccc(Cl)c1N=C1NCCN1", "note": "[CLONIDINE]", "values": [{"measurement": "inhibition at 5000 µM", "setting": "OCT3 (SLC22A3) [6]", "value": "> 90", "unit": "%"}, {"measurement": "Ki", "setting": "[4]", "value": 373, "unit": "µM"}]}, {"molecule": "CNCCCN1c2ccccc2CCc2ccccc21", "note": "[DESIPRAMINE]", "values": [{"measurement": "Ki", "setting": "[4]", "value": 14, "unit": "µM"}]}, {"molecule": "N=C(N)N", "note": "[GUANIDINE]", "values": [{"measurement": "Activity", "setting": "[2]", "value": "substrate [+]"}, {"measurement": "Ki", "setting": "[4]", "value": 6200, "unit": "µM"}, {"measurement": "Inhibition", "setting": "[7]", "value": "inhibitor [60-70 % inhibition]"}]}, {"molecule": "CN(C)CCCN1c2ccccc2CCc2ccccc21", "note": "[IMIPRAMINE]", "values": [{"measurement": "Ki", "setting": "[4]", "value": 42, "unit": "µM"}]}, {"molecule": "CNC(=O)c1cccnc1", "note": "[NICOTINYL METHYLAMIDE]", "values": [{"measurement": "Inhibition", "setting": "[8]", "value": "inhibitor [60-70 % inhibition]"}]}, {"molecule": "CCN(CC)CCNC(=O)c1ccc(N)cc1", "note": "[PROCAINAMIDE]", "values": [{"measurement": "Ki", "setting": "[4]", "value": 738, "unit": "µM"}]}, {"molecule": "CC[N+](CC)(CC)CC", "note": "[TETRYLAMMONIUM]", "values": [{"measurement": "Activity", "setting": "[9]", "value": "substrate [+]"}, {"measurement": "Activity", "setting": "[2]", "value": "substrate [+]"}, {"measurement": "Ki", "setting": "[4]", "value": 1370, "unit": "µM"}]}, {"molecule": "Solute carrier family 22 member 3 (Mus musculus) (protein) MPTFDQALRKAGEFGRFQRRVFLLLCLTGVTFAFLFVGVVFLGSQPDYYWCRGPRATALAERCAWSPEEEWNLTTPELHVPAERRGQGHCHRYLLEATNTSSELSCDPLTAFPNRSAPLVSCSGDWRYVETHSTIVSQFDLVCSNAWMLDLTQAILNLGFLAGAFTLGYAADRYGRLIIYLISCFGVGITGVVVAFAPNFSVFVIFRFLQGVFGKGAWMTCFVIVTEIVGSKQRRIVGIVIQMFFTLGIIILPGIAYFTPSWQGIQLAISLPSFLFLLYYWVVPESPRWLITRKQGEKALQILRRVAKCNGKHLSSNYSEITVTDEEVSNPSCLDLVRTPQMRKCTLILMFAWFTSAVVYQGLVMRLGLIGGNLYIDFFISGLVELPGALLILLTIERLGRRLPFAASNIVAGVSCLVTAFLPEGIPWLRTTVATLGRLGITMAFEIVYLVNSELYPTTLRNFGVSLCSGLCDFGGIIAPFLLFRLAAIWLELPLIIFGILASVCGGLVMLLPETKGIALPETVEDVEKLGSSQLHQCGRKKKTQVSTSDV", "values": [{"measurement": "Km", "setting": "[10]", "value": 1900, "unit": "µM"}]}]}
